Read-outs that look alike come from different tables or passages of the source.
Tests used:
[1] = test system: RS4; 11 cells; test: Cell proliferation assay (MTS), RS4; 11 cells; type: cell-based; conditions: RS4, 11 (ATCC CRL-1873) cell proliferation, 30000 cells/well, 72 h, MTS, mechanism-based readout of Bcl-2 inhibition, read-out: RS4, 11 IC50
From the text: (§1) MTS testing kit was purchased from Promega. The RPMI-1640, Fetal bovine serum and Penicillin-Streptomycin were purchased from Gibco. Dimethyl sulfoxide (DMSO) was purchased from Sigma.
(§2) To investigate whether a compound is able to inhibit the activity of Bcl-2 in cells, a mechanism-based assay using DOHH2 (DSMZ No.® ACC 47) and RS4; 11 (ATCC® CRL-1873™) cell was developed. In this assay, inhibition of Bcl-2 was detected by the inhibition of DOHH2 and RS4; 11 cells proliferation. DOHH2 and RS4; 11 cells were cultured in culture flasks to 40-80% confluence in RPMI-1640 plus 10% fetal bovine serum. Cells were collected and plated onto 96-well plates at desired cell density (DOHH2: 5000 cells/well; RS4; 11: 30000 cells/well). Plates were incubated overnight at 37° C., with 5% CO2 to adhere. Compounds were added to the plates, and the final compound concentrations were 10000, 3333, 1111, […], 124, 41, 14, 4.6 and 1.5 nM. Plates plated with DOHH2 or RS4; 11 cells were placed at 37° C., with 5% CO2 for 120 h (DOHH2) or 72 h (RS4; 11) respectively. 20 μl MTS/100 μl medium mixture solution were added to each well and incubate the plates for exactly 2 hours. The reaction was stopped by adding 25 μl 10% SDS per well. Measure absorbance at 490 nm and 650 nm (reference wavelength). ICso was calculated using GraphPad Prism 5.0.

[2] = test system: DOHH2 cells; test: Cell proliferation assay (MTS), DOHH2 cells; type: cell-based; conditions: DOHH2 (DSMZ ACC 47) cell proliferation, 5000 cells/well, 120 h, MTS, mechanism-based readout of Bcl-2 inhibition, read-out: DOHH2 IC50
From the text: as §1, §2

Structure (SMILES) | IC50 ([1]; Homo sapiens, RS4-11, 72 h) [nM] | IC50 ([2]; Homo sapiens, DOHH-2, 120 h) [nM] | IC50 [2] [nM] | IC50 [1] [nM]
CC(=O)N=S1(=O)CCN(CC[C@H](C)Nc2ccc(S(=O)(=O)NC(=O)c3ccc(N4CCN(CC5=C(c6ccc(Cl)cc6)CC(C)(C)CC5)CC4)cc3Oc3cnc4[nH]ccc4c3)cc2S(=O)(=O)C(F)(F)F)CC1 [Example 89, (S)-2-((1H-pyrrolo[2,3-b]pyridin-5-yl)oxy)-N-((4-((4-(1-(acetylimino)-1-oxido-1λ^6-thiomorpholino)butan-2-yl)amino)-3-((trifluoromethyl)sulfonyl)phenyl)sulfonyl)-4-(4-((4′-chloro-5,5-dimethyl-3,4,5,6-tetrahydro-[1,1′-biphenyl]-2-yl)methyl)piperazin-1-yl)benzamide] | 53 | 112 | – | –
CC1(C)CCC(CN2CCN(c3ccc(C(=O)NS(=O)(=O)c4ccc(NCC5CCC(N=S(C)(C)=O)CC5)c([N+](=O)[O-])c4)c(Oc4cnc5[nH]ccc5c4)c3)CC2)=C(c2ccc(Cl)cc2)C1 (single isomer, unassigned) [Example 50A, 2-((1H-pyrrolo[2,3-b]pyridin-5-yl)oxy)-4-(4-((4′-chloro-5,5-dimethyl-3,4,5,6-tetrahydro-[1,1′-biphenyl]-2-yl)methyl)piperazin-1-yl)-N-((4-(((4-((dimethyl(oxo)-λ^6-sulfanylidene)amino)cyclohexyl)methyl)amino)-3-nitrophenyl)sulfonyl) benzamide] | 3 | – | 3.5 | –
CCOC(=O)N=S1(=O)CCN(CC[C@H](C)Nc2ccc(S(=O)(=O)NC(=O)c3ccc(N4CCN(CC5=C(c6ccc(Cl)cc6)CC(C)(C)CC5)CC4)cc3Oc3cnc4[nH]ccc4c3)cc2[N+](=O)[O-])CC1 [Example 85, ethyl (S)-(4-(3-((4-(N-(2-((1H-pyrrolo[2,3-b]pyridin-5-yl)oxy)-4-(4-((4′-chloro-5,5-dimethyl-3,4,5,6-tetrahydro-[1,1′-biphenyl]-2-yl)methyl)piperazin-1-yl)benzoyl)sulfamoyl)-2-nitrophenyl)amino)butyl)-1-oxido-1λ^6-thiomorpholin-1-ylidene) carbamate] | 36 | 30 | – | –
CC(C)OC(=O)N=S1(=O)CCN(CC[C@H](C)Nc2ccc(S(=O)(=O)NC(=O)c3ccc(N4CCN(CC5=C(c6ccc(Cl)cc6)CC(C)(C)CC5)CC4)cc3Oc3cnc4[nH]ccc4c3)cc2[N+](=O)[O-])CC1 [Example 86, isopropyl (S)-(4-(3-((4-(N-(2-((1H-pyrrolo[2,3-b]pyridin-5-yl)oxy)-4-(4-((4′-chloro-5,5-dimethyl-3,4,5,6-tetrahydro-[1,1′-biphenyl]-2-yl)methyl)piperazin-1-yl)benzoyl)sulfamoyl)-2-nitrophenyl)amino)butyl)-1-oxido-1λ^6-thiomorpholin-1-ylidene) carbamate] | 23 | 35 | – | –
CCC(=O)N=S1(=O)CCN(CC[C@H](C)Nc2ccc(S(=O)(=O)NC(=O)c3ccc(N4CCN(CC5=C(c6ccc(Cl)cc6)CC(C)(C)CC5)CC4)cc3Oc3cnc4[nH]ccc4c3)cc2[N+](=O)[O-])CC1 [Example 81, (S)-2-((1H-pyrrolo[2,3-b]pyridin-5-yl)oxy)-4-(4-((4′-chloro-5,5-dimethyl-3,4,5,6-tetrahydro-[1,1′-biphenyl]-2-yl)methyl)piperazin-1-yl)-N-((3-nitro-4-((4-(1-oxido-1-(propionylimino)-1λ^6-thiomorpholino)butan-2-yl)amino)phenyl)sulfonyl) benzamide] | 7 | 30 | – | –
CCC(=O)N=S1(=O)CCN(CCNc2ccc(S(=O)(=O)NC(=O)c3ccc(N4CCN(CC5=C(c6ccc(Cl)cc6)CC(C)(C)CC5)CC4)cc3Oc3cnc4[nH]ccc4c3)cc2[N+](=O)[O-])CC1 [Example 67, 2-((1H-pyrrolo[2,3-b]pyridin-5-yl)oxy)-4-(4-((4′-chloro-5,5-dimethyl-3,4,5,6-tetrahydro-[1,1′-biphenyl]-2-yl)methyl)piperazin-1-yl)-N-((3-nitro-4-((2-(1-oxido-1-(propionylimino)-1λ^6-thiomorpholino)ethyl)amino)phenyl)sulfonyl)benzamide] | 32 | 138 | – | –
C[C@@H](CCN1CCS(=O)(=NC(=O)C2CC2)CC1)Nc1ccc(S(=O)(=O)NC(=O)c2ccc(N3CCN(CC4=C(c5ccc(Cl)cc5)CC(C)(C)CC4)CC3)cc2Oc2cnc3[nH]ccc3c2)cc1S(=O)(=O)C(F)(F)F [Example 91, (S)-2-((1H-pyrrolo[2,3-b]pyridin-5-yl)oxy)-4-(4-((4′-chloro-5,5-dimethyl-3,4,5,6-tetrahydro-[1,1′-biphenyl]-2-yl)methyl)piperazin-1-yl)-N-((4-((4-(1-((cyclopropanecarbonyl)imino)-1-oxido-1λ^6-thiomorpholino)butan-2-yl)amino)-3-((trifluoromethyl)sulfonyl)phenyl)sulfonyl)benzamide] | 119 | 255 | – | –
COC(=O)N=S1(=O)CCN(CCNc2ccc(S(=O)(=O)NC(=O)c3ccc(N4CCN(CC5=C(c6ccc(Cl)cc6)CC(C)(C)CC5)CC4)cc3Oc3cnc4[nH]ccc4c3)cc2[N+](=O)[O-])CC1 [Example 43, methyl (4-(2-((4-(N-(2-((1H-pyrrolo[2,3-b]pyridin-5-yl)oxy)-4-(4-((4′-chloro-5,5-dimethyl-3,4,5,6-tetrahydro-[1,1′-biphenyl]-2-yl)methyl)piperazin-1-yl)benzoyl)sulfamoyl)-2-nitrophenyl)amino)ethyl)-1-oxido-1λ^6-thiomorpholin-1-ylidene) carbamate] | 102 | 271 | – | –
CC1(C)CCC(CN2CCN(c3ccc(C(=O)NS(=O)(=O)c4cnc(NCC5CCC(N=S(C)(C)=O)CC5)c([N+](=O)[O-])c4)c(Oc4cnc5[nH]ccc5c4)c3)CC2)=C(c2ccc(Cl)cc2)C1 (stereo not shown) [Example 52, 2-((1H-pyrrolo[2,3-b]pyridin-5-yl)oxy)-4-(4-((4′-chloro-5,5-dimethyl-3,4,5,6-tetrahydro-[1,1′-biphenyl]-2-yl)methyl)piperazin-1-yl)-N-((6-(((4-((dimethyl(oxo)-λ^6-sulfanylidene)amino)cyclohexyl)methyl)amino)-5-nitropyridin-3-yl)sulfonyl) benzamide] | 2 | 29 | – | –
CCN=S1(=O)CCN(CC[C@H](C)Nc2ccc(S(=O)(=O)NC(=O)c3ccc(N4CCN(CC5=C(c6ccc(Cl)cc6)CC(C)(C)CC5)CC4)cc3Oc3cnc4[nH]ccc4c3)cc2S(=O)(=O)C(F)(F)F)CC1 [Example 87, (S)-2-((1H-pyrrolo[2,3-b]pyridin-5-yl)oxy)-4-(4-((4′-chloro-5,5-dimethyl-3,4,5,6-tetrahydro-[1,1′-biphenyl]-2-yl)methyl)piperazin-1-yl)-N-((4-((4-(1-(ethylimino)-1-oxido-1λ^6-thiomorpholino)butan-2-yl)amino)-3-((trifluoromethyl)sulfonyl)phenyl)sulfonyl) benzamide] | – | – | 266 | 145
CC1(C)CCC(CN2CCN(c3ccc(C(=O)NS(=O)(=O)c4ccc(NCC5CC(N=S(C)(C)=O)C5)c([N+](=O)[O-])c4)c(Oc4cnc5[nH]ccc5c4)c3)CC2)=C(c2ccc(Cl)cc2)C1 (stereo not shown) [Example 59, 2-((1H-pyrrolo[2,3-b]pyridin-5-yl)oxy)-4-(4-((4′-chloro-5,5-dimethyl-3,4,5,6-tetrahydro-[1,1′-biphenyl]-2-yl)methyl)piperazin-1-yl)-N-((4-(((3-((dimethyl(oxo)-λ^6-sulfanylidene)amino)cyclobutyl)methyl)amino)-3-nitrophenyl)sulfonyl)benzamide] | 35 | 82 | – | –

Reference: patent US11053239B2, “Compounds as BLC-2-selective apoptosis-inducing agents” (Fochon Pharmaceuticals, Ltd., priority 2017, dated 2021)
